In patent US20080221086A1, “Novel Inhibitors of Glutaminyl Cyclase” (PROBIODRUG AG, priority 2006, published 2008):

Biological target: hQC (Homo sapiens, UniProt Q16769)
Assay: Fluorometric assay of glutaminyl cyclase (QC) inhibition, H-Gln-βNA or H-Gln-AMC substrate
Type: biochemical
Settings: read-out: IC50
In short: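 Ki values were obtained by fitting progress curves to a competitive-inhibition equation, and the rapid screen used 4 mM inhibitor with substrate at 1 KM. Both readouts coupled pyroglutamyl aminopeptidase at pH 8.0 and 30° C: H-Gln-βNA at 0.2 mM (ex/em 320/410 nm) or H-Gln-AMC (380/460 nm).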

Sequence of hQC (Q16769 29-361): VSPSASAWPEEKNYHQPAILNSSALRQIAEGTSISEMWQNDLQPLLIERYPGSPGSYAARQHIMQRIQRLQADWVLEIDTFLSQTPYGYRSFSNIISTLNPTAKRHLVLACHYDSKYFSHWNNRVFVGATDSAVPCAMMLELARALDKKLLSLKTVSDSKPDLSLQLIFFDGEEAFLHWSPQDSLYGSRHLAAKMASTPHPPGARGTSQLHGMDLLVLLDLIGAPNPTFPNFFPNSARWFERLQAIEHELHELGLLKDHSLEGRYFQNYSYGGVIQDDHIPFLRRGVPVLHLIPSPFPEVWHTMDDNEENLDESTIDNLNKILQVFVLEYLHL

SMILES	IC50 [nM]
O=C1CCCN1CCC/N=C1/NC(=O)N(c2ccc3[nH]cnc3c2)C1c1ccc2[nH]ccc2c1 (stereo not shown) [Compound 289, 1-(1H-benzoimidazol-5-yl)-5-(1H-indol-5-yl)-4-3-(2-oxo-pyrrolidin-1-yl)-propylimino-imidazolidin-2-one]	4
COC(=O)C(C)N=C1NC(=O)N(c2ccc3[nH]cnc3c2)C1c1c(F)cc(Cl)cc1F (stereo not shown) [Compound 290, Methyl 2-(1-(1H-benzo[d]imidazol-5-yl)-5-(4-chloro-2,6-difluorophenyl)-2-oxoimidazolidin-4-ylideneamino)propanoate]	400
O=C1N/C(=N\c2ccc3c(c2)OCCO3)C(c2ccc3c(c2)OCO3)N1c1ccc2[nH]cnc2c1 (stereo not shown) [Compound 292, 5-Benzo1,3dioxol-5-yl-1-(1H-benzoimidazol-5-yl)-4-2,3-dihydro-benzo1,4dioxin-6-ylimino-imidazolidin-2-one]	1300
O=C1N/C(=N/CCN2CCOCC2)C(c2cc(Br)cc(Br)c2)N1c1ccc2nc[nH]c2c1 (stereo not shown) [Compound 296, 1-(3H-Benzoimidazol-5-yl)-5-(3,5-dibromo-phenyl)-4-2-morpholin-4-yl-ethylimino-imidazolidin-2-one]	4900
O=C1N/C(=N\C2CCCCC2O)C(c2coc3ccccc3c2=O)N1c1ccc2[nH]cnc2c1 (stereo not shown) [Compound 297, 1-(1H-Benzoimidazol-5-yl)-4-2-hydroxy-cyclohexylimino-5-(4-oxo-4H-chromen-3-yl)-imidazolidin-2-one]	9400
CC(C)CC(C)N=C1NC(=O)N(c2ccc3[nH]cnc3c2)C1c1ccccc1C(F)(F)F (stereo not shown) [Compound 298, 1-(1H-Benzoimidazol-5-yl)-4-1,3-dimethyl-butylimino-5-(2-trifluoromethyl-phenyl)-imidazolidin-2-one]	6700
O=C1N/C(=N\C2CCCCCC2)C(c2cc(Br)cc(Br)c2)N1c1ccc2nc[nH]c2c1 (stereo not shown) [Compound 301, 1-(3H-Benzoimidazol-5-yl)-4-cycloheptylimino-5-(3,5-dibromo-phenyl)-imidazolidin-2-one]	4
O=C(C/N=C1/NC(=O)N(c2ccc3[nH]cnc3c2)C1c1ccc(Cl)c(F)c1)N1CCCCC1 (stereo not shown) [Compound 302, 1-(1H-Benzoimidazol-5-yl)-5-(4-chloro-3-fluoro-phenyl)-4-2-oxo-2-piperidin-1-yl-ethylimino-imidazolidin-2-one]	3100
O=C1N/C(=N/CCCc2ccccc2)C(c2cc(Br)cc(Br)c2)N1c1ccc2[nH]cnc2c1 (stereo not shown) [Compound 303, 1-(1H-Benzoimidazol-5-yl)-5-(3,5-dibromo-phenyl)-4-3-phenyl-propylimino-imidazolidin-2-one]	4
O=C1N/C(=N/Cc2ccc3[nH]ccc3c2)C(c2cc(Br)cc(Br)c2)N1c1ccc2nc[nH]c2c1 (stereo not shown) [Compound 305, 1-(3H-Benzoimidazol-5-yl)-5-(3,5-dibromo-phenyl)-4-1H-indol-5-ylmethylimino-imidazolidin-2-one]	4
CN1CCCN(C(=O)C/N=C2/NC(=O)N(c3ccc4[nH]cnc4c3)C2c2ccc3c(c2)OCCO3)CC1 (stereo not shown) [Compound 306, 1-(1H-Benzoimidazol-5-yl)-5-(2,3-dihydro-benzo1,4dioxin-6-yl)-4-2-(4-methyl-1,4diazepan-1-yl)-2-oxo-ethylimino-imidazolidin-2-one]	2200
CN1CCCN(C(=O)C/N=C2/NC(=O)N(c3ccc4[nH]cnc4c3)C2c2ccc3[nH]ccc3c2)CC1 (stereo not shown) [Compound 307, 1-(1H-Benzoimidazol-5-yl)-5-(1H-indol-5-yl)-4-2-(4-methyl-1,4diazepan-1-yl)-2-oxo-ethylimino-imidazolidin-2-one]	2200
COCC/N=C1/NC(=O)N(c2ccc3[nH]cnc3c2)C1c1ccc(C)cc1 (stereo not shown) [Compound 308, 1-(1H-Benzoimidazol-5-yl)-4-2-methoxy-ethylimino-5-p-tolyl-imidazolidin-2-one]	1300
S=C1N/C(=N/Cn2nnc3ccccc32)C(c2ccc3ccccc3c2)N1c1ccc2[nH]cnc2c1 (stereo not shown) [Compound 309, 1-(1H-Benzoimidazol-5-yl)-4-benzotriazol-1-ylmethylimino-5-naphthalen-2-yl-imidazolidine-2-thione]	1300
OC1CCCCC1N=C1NC(=S)N(c2ccc3[nH]cnc3c2)C1c1ccc2nsnc2c1 (stereo not shown) [Compound 312, 1-(1H-Benzoimidazol-5-yl)-5-benzo[c][1,2,5]thiadiazol-5-yl-4-2-hydroxy-cyclohexylimino-imidazolidine-2-thione]	9400
Cc1ccc2occ(C3/C(=N/CCCc4ccccc4)NC(=S)N3c3ccc4[nH]cnc4c3)c(=O)c2c1 (stereo not shown) [Compound 313, 3-{3-(1H-Benzoimidazol-5-yl)-5-3-phenyl-propylimino-2-thioxo-imidazolidin-4-yl}-6-methyl-chromen-4-one]	3100
O=C1N/C(=N/CCc2cccs2)C(c2cc3c(cc2Br)OCO3)N1c1ccc2nc[nH]c2c1 (stereo not shown) [Compound 314, 1-(3H-Benzoimidazol-5-yl)-5-(6-bromo-benzo1,3dioxol-5-yl)-4-2-thiophen-2-yl-ethylimino-imidazolidin-2-one]	4
O=C1N/C(=N\C2CCCC2)C(c2ccc(Cl)c(F)c2)N1c1ccc2[nH]cnc2c1 (stereo not shown) [Compound 318, 1-(1H-Benzoimidazol-5-yl)-5-(4-chloro-3-fluoro-phenyl)-4-cyclopentylimino-imidazolidin-2-one]	4
O=C1CCCN1CCC/N=C1/NC(=O)N(c2ccc3nc[nH]c3c2)C1c1ccc(Br)cc1 (stereo not shown) [Compound 321, 1-(3H-Benzoimidazol-5-yl)-5-(4-bromo-phenyl)-4-3-(2-oxo-pyrrolidin-1-yl)-propylimino-imidazolidin-2-one]	4
CN(C)c1ccc(C2/C(=N\Cn3nnc4ccccc43)NC(=O)N2c2ccc3[nH]cnc3c2)cc1 (stereo not shown) [Compound 322, 1-(1H-Benzoimidazol-5-yl)-4-benzotriazol-1-ylmethylimino-5-(4-dimethylamino-phenyl)-imidazolidin-2-one]	1300
O=C1CCCN1CCC/N=C1/NC(=O)N(c2ccc3[nH]cnc3c2)C1c1ccc(Cl)c(F)c1 (stereo not shown) [Compound 323, 1-(1H-Benzoimidazol-5-yl)-5-(4-chloro-3-fluoro-phenyl)-4-3-(2-oxo-pyrrolidin-1-yl)-propylimino-imidazolidin-2-one]	400

The remaining lines, values ahead:

IC50 [nM]	SMILES
7600	CCc1ccccc1/N=C1\NC(=S)N(c2ccc3nc[nH]c3c2)C1C1CCC(C)=CC1C (stereo not shown) [Compound 288, 1-(3H-Benzoimidazol-5-yl)-5-(2,4-dimethyl-cyclohex-3-enyl)-4-2-ethyl-phenylimino-imidazolidine-2-thione]
4000	S=C1NC(=Nc2ccccc2Br)C(c2ccc3[nH]ccc3c2)N1c1ccc2nc[nH]c2c1 (stereo not shown) [Compound 291, 1-(3H-Benzoimidazol-5-yl)-4-2-bromo-phenylimino-5-(1H-indol-5-yl)-imidazolidine-2-thione]
5800	Cc1ccc(C2/C(=N/C(C)(C)CC(C)(C)C)NC(=O)N2c2ccc3nc[nH]c3c2)cc1 (stereo not shown) [Compound 293, 1-(3H-Benzoimidazol-5-yl)-4,1,1,3,3-tetramethyl-butylimino-5-p-tolyl-imidazolidin-2-one]
1300	CC1=CC(C)C(C2C(=NCC(=O)N3CCSCC3)NC(=O)N2c2ccc3[nH]cnc3c2)CC1 (stereo not shown) [Compound 294, 1-(1H-Benzoimidazol-5-yl)-5-(2,4-dimethyl-cyclohex-3-enyl)-4-2-oxo-2-thiomorpholin-4-yl-ethylimino-imidazolidin-2-one]
7600	Cc1cccc(C2/C(=N/c3cc(Cl)ccc3Cl)NC(=S)N2c2ccc3[nH]cnc3c2)c1 (stereo not shown) [Compound 299, 1-(1H-Benzoimidazol-5-yl)-4-2,5-dichloro-phenylimino-5-m-tolyl-imidazolidine-2-thione]
9400	CC1=CC(C)C(C2/C(=N/c3ccccc3Br)NC(=S)N2c2ccc3[nH]cnc3c2)CC1 (stereo not shown) [Compound 300, 1-(1H-Benzoimidazol-5-yl)-4-2-bromo-phenylimino-5-(2,4-dimethyl-cyclohex-3-enyl)-imidazolidine-2-thione]
7600	COC(=O)C(C)N=C1NC(=S)N(c2ccc3[nH]cnc3c2)C1c1ccccc1 (stereo not shown) [Compound 304, Methyl 2-(1-(1H-benzo[d]imidazol-5-yl)-5-phenyl-2-thioxoimidazolidin-4-ylideneamino)propanoate]
400	O=C1N/C(=N/C2CC2)C(c2ccc(Br)cc2)N1c1ccc2nc[nH]c2c1 (stereo not shown) [Compound 310, 1-(3H-Benzoimidazol-5-yl)-5-(4-bromo-phenyl)-4-cyclopropylimino-imidazolidin-2-one]
5800	S=C1N/C(=N\C2CCCc3ccccc32)C(c2cc(Br)cs2)N1c1ccc2nc[nH]c2c1 (stereo not shown) [Compound 311, 1-(3H-Benzoimidazol-5-yl)-5-(4-bromo-thiophen-2-yl)-4-1,2,3,4-tetrahydro-naphthalen-1-ylimino-imidazolidine-2-thione]
7600	CC(CC1/C(=N/C2CCCCCC2)NC(=S)N1c1ccc2nc[nH]c2c1)CC(C)(C)C (stereo not shown) [Compound 315, 1-(3H-Benzoimidazol-5-yl)-4-cycloheptylimino-5-(2,4,4-trimethyl-pentyl)-imidazolidine-2-thione]
7600	CC1=CC(C)C(C2/C(=N/CC(=O)N3CCC(O)CC3)NC(=O)N2c2ccc3nc[nH]c3c2)CC1 (stereo not shown) [Compound 316, 1-(3H-Benzoimidazol-5-yl)-5-(2,4-dimethyl-cyclohex-3-enyl)-4-2-(4-hydroxy-piperidin-1-yl)-2-oxo-ethylimino-imidazolidin-2-one]
9400	CCc1ccccc1/N=C1\NC(=S)N(c2ccc3[nH]cnc3c2)C1c1ccccc1 (stereo not shown) [Compound 317, 1-(1H-Benzoimidazol-5-yl)-4-2-ethyl-phenylimino-5-phenyl-imidazolidine-2-thione]
5800	COC(=O)C(C)/N=C1\NC(=S)N(c2ccc3[nH]cnc3c2)C1c1ccc(C)cc1 (stereo not shown) [Compound 320, Methyl 2-(1-(1H-benzo[d]imidazol-5-yl)-2-thioxo-5-p-tolylimidazolidin-4-ylideneamino)propanoate]
